Data published in patent US8729091B2, “4-phenoxy-nicotinamide or 4-phenoxy-pyrimidine-5-carboxamide compounds” (Hoffmann-La Roche Inc., priority 2010, dated 2014).

Target: T1, human GPBAR1 receptor (Homo sapiens, UniProt Q8TDU6)
T1 construct: expressed in transfected cells
T1 sequence (Q8TDU6 1-330): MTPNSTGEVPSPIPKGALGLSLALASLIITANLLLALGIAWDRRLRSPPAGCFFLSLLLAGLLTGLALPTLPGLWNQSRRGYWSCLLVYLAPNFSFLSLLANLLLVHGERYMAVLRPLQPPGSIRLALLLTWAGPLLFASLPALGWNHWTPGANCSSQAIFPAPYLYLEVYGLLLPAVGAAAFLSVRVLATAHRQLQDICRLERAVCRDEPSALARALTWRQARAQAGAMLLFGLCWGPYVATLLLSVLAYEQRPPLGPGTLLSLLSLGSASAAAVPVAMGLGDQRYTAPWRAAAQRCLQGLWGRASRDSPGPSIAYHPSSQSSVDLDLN
Assay: functional cAMP assay in CHO-dhfr(minus) cells expressing human GPBAR1 receptors
Format: cell-based
Conditions: cAMP increase (TR-FRET) in CHO-dhfr(minus) cells expressing human GPBAR1; compounds incubated 30 min at 30° C.
Method: The final clone was verified by DNA sequence analysis. The plasmid was transfected into CHO cells deficient in dihydrofolate reductase activity (CHO-dhfr−) using Lipofectamine plus (Invitrogen). Clones were isolated in limited dilution conditions and identified by activities in the cAMP assay using lithocholic acid as agonist.
The growth medium was exchanged with Krebs Ringer Bicarbonate buffer with 1 mM IBMX and incubated at 30° C. for 30 min. Compounds were added to a final assay volume of 100 μl and incubated for 30 min at 30° C. […] The time-resolved energy transfer is measured by a TRF reader (Evotec Technologies GmbH, Hamburg Germany), equipped with a ND:YAG laser as excitation source.
EC50 values were determined using Activity Base analysis (ID Business Solution, Limited). […] Specificity for GPBAR1 was tested in non-transfected CHO cells in the same assay as above.

Compound | EC50 [µM]
CN(CCS(=O)(=O)O)C(=O)c1cc(Cl)c(Oc2ccncc2C(=O)N2CCN(C3CC3)c3ccccc32)cc1Cl [Example 36, 2-({2,5-Dichloro-4-[3-(4-cyclopropyl-3,4-dihydro-2H-quinoxaline-1-carbonyl)-pyridin-4-yloxy]-benzoyl}-methyl-amino)-ethanesulfonic acid] | 0.3
O=C(NCCCS(=O)(=O)O)c1cc(Cl)c(Oc2ccncc2C(=O)N2CCN(C3CC3)c3ccccc32)cc1Cl [Example 37, 3-{2,5-Dichloro-4-[3-(4-cyclopropyl-3,4-dihydro-2H-quinoxaline-1-carbonyl)-pyridin-4-yloxy]-benzoylamino}-propane-1-sulfonic acid] | 0.9
O=C(NCc1nnn[nH]1)c1cc(Cl)c(Oc2ccncc2C(=O)N2CCN(C3CC3)c3ccccc32)cc1Cl [Example 39, 2,5-Dichloro-4-[3-(4-cyclopropyl-3,4-dihydro-2H-quinoxaline-1-carbonyl)-pyridin-4-yloxy]-N-(1H-tetrazol-5-ylmethyl)-benzamide] | 0.4
O=C(O)CCCNC(=O)c1cc(Cl)c(Oc2ccncc2C(=O)N2CCN(C3CC3)c3ccccc32)cc1Cl [Example 40, 4-{2,5-Dichloro-4-[3-(4-cyclopropyl-3,4-dihydro-2H-quinoxaline-1-carbonyl)-pyridin-4-yloxy]-benzoylamino}-butyric acid] | 0.2
CCOC(=O)c1sc(NC(=O)c2cc(Cl)c(Oc3ccncc3C(=O)N3CCN(C4CC4)c4ccccc43)cc2Cl)nc1C [Example 45, 2-{2,5-Dichloro-4-[3-(4-cyclopropyl-3,4-dihydro-2H-quinoxaline-1-carbonyl)-pyridin-4-yloxy]-benzoylamino}-4-methyl-thiazole-5-carboxylic acid ethyl ester] | 0.6
O=C(Nc1nncs1)c1cc(Cl)c(Oc2ccncc2C(=O)N2CCN(C3CC3)c3ccccc32)cc1Cl [Example 48, 2,5-Dichloro-4-[3-(4-cyclopropyl-3,4-dihydro-2H-quinoxaline-1-carbonyl)-pyridin-4-yloxy]-N-[1,3,4]thiadiazol-2-yl-benzamide] | 0.2
O=C(c1cc(Cl)c(Oc2ccncc2C(=O)N2CCN(C3CC3)c3ccccc32)cc1Cl)N(CCO)CCO [Example 50, 2,5-Dichloro-4-[3-(4-cyclopropyl-3,4-dihydro-2H-quinoxaline-1-carbonyl)-pyridin-4-yloxy]-N,N-bis-(2-hydroxy-ethyl)-benzamide] | 1.1
O=C(NC(CO)CO)c1cc(Cl)c(Oc2ccncc2C(=O)N2CCN(C3CC3)c3ccccc32)cc1Cl [Example 51, 2,5-Dichloro-4-[3-(4-cyclopropyl-3,4-dihydro-2H-quinoxaline-1-carbonyl)-pyridin-4-yloxy]-N-(2-hydroxy-1-hydroxymethyl-ethyl)-benzamide] | 0.3
COC(=O)CCC(CCC(=O)OC)NC(=O)c1cc(Cl)c(Oc2ccncc2C(=O)N2CCN(C3CC3)c3ccccc32)cc1Cl [Example 54, 4-{2,5-Dichloro-4-[3-(4-cyclopropyl-3,4-dihydro-2H-quinoxaline-1-carbonyl)-pyridin-4-yloxy]-benzoylamino}-heptanedioic acid dimethyl ester] | 0.3
O=C(O)COc1cc(Cl)c(Oc2ccncc2C(=O)N2CCN(C3CC3)c3ccccc32)cc1Cl [Example 59, {2,5-Dichloro-4-[3-(4-cyclopropyl-3,4-dihydro-2H-quinoxaline-1-carbonyl)-pyridin-4-yloxy]-phenoxy}-acetic acid] | 0.5
CCOC(=O)C(C)(C)Oc1cc(Cl)c(Oc2ccncc2C(=O)N2CCN(C3CC3)c3ccccc32)cc1Cl [Example 60, 2-{2,5-Dichloro-4-[3-(4-cyclopropyl-3,4-dihydro-2H-quinoxaline-1-carbonyl)-pyridin-4-yloxy]-phenoxy}-2-methyl-propionic acid ethyl ester] | 0.2
CC(C)(Oc1cc(Cl)c(Oc2ccncc2C(=O)N2CCN(C3CC3)c3ccccc32)cc1Cl)C(=O)O [Example 61, 2-{2,5-Dichloro-4-[3-(4-cyclopropyl-3,4-dihydro-2H-quinoxaline-1-carbonyl)-pyridin-4-yloxy]-phenoxy}-2-methyl-propionic acid] | 0.4

These reach a lower EC50. Values come first.

EC50 [µM] | Compound
0.04 | O=C(Nc1nnn[nH]1)c1cc(Cl)c(Oc2ccncc2C(=O)N2CCN(C3CC3)c3ccccc32)cc1Cl [Example 38, 2,5-Dichloro-4-[3-(4-cyclopropyl-3,4-dihydro-2H-quinoxaline-1-carbonyl)-pyridin-4-yloxy]-N-(1H-tetrazol-5-yl)-benzamide]
0.1 | COC(=O)c1cc(NC(=O)c2cc(Cl)c(Oc3ccncc3C(=O)N3CCN(C4CC4)c4ccccc43)cc2Cl)cn1C [Example 41, 4-{2,5-Dichloro-4-[3-(4-cyclopropyl-3,4-dihydro-2H-quinoxaline-1-carbonyl)-pyridin-4-yloxy]-benzoylamino}-1-methyl-1H-pyrrole-2-carboxylic acid methyl ester]
0.1 | Cn1cc(NC(=O)c2cc(Cl)c(Oc3ccncc3C(=O)N3CCN(C4CC4)c4ccccc43)cc2Cl)cc1C(=O)O [Example 42, 4-{2,5-Dichloro-4-[3-(4-cyclopropyl-3,4-dihydro-2H-quinoxaline-1-carbonyl)-pyridin-4-yloxy]-benzoylamino}-1-methyl-1H-pyrrole-2-carboxylic acid]
0.1 | COC(=O)c1ccc(NC(=O)c2cc(Cl)c(Oc3ccncc3C(=O)N3CCN(C4CC4)c4ccccc43)cc2Cl)cc1 [Example 43, 4-{2,5-Dichloro-4-[3-(4-cyclopropyl-3,4-dihydro-2H-quinoxaline-1-carbonyl)-pyridin-4-yloxy]-benzoylamino}-benzoic acid methyl ester]
0.02 | O=C(O)c1ccc(NC(=O)c2cc(Cl)c(Oc3ccncc3C(=O)N3CCN(C4CC4)c4ccccc43)cc2Cl)cc1 [Example 44, 4-{2,5-Dichloro-4-[3-(4-cyclopropyl-3,4-dihydro-2H-quinoxaline-1-carbonyl)-pyridin-4-yloxy]-benzoylamino}-benzoic acid]
0.03 | Cc1nc(NC(=O)c2cc(Cl)c(Oc3ccncc3C(=O)N3CCN(C4CC4)c4ccccc43)cc2Cl)sc1C(=O)O [Example 46, 2-{2,5-Dichloro-4-[3-(4-cyclopropyl-3,4-dihydro-2H-quinoxaline-1-carbonyl)-pyridin-4-yloxy]-benzoylamino}-4-methyl-thiazole-5-carboxylic acid]
0.1 | CCOC(=O)c1nnc(NC(=O)c2cc(Cl)c(Oc3ccncc3C(=O)N3CCN(C4CC4)c4ccccc43)cc2Cl)s1 [Example 47, 5-{2,5-Dichloro-4-[3-(4-cyclopropyl-3,4-dihydro-2H-quinoxaline-1-carbonyl)-pyridin-4-yloxy]-benzoylamino}-[1,3,4]thiadiazole-2-carboxylic acid ethyl ester]
0.04 | O=C(NCCO)c1cc(Cl)c(Oc2ccncc2C(=O)N2CCN(C3CC3)c3ccccc32)cc1Cl [Example 49, 2,5-Dichloro-4-[3-(4-cyclopropyl-3,4-dihydro-2H-quinoxaline-1-carbonyl)-pyridin-4-yloxy]-N-(2-hydroxy-ethyl)-benzamide]
0.01 | NC(=O)c1cc(Cl)c(Oc2ccncc2C(=O)N2CCN(C3CC3)c3ccccc32)cc1Cl [Example 52, 2,5-Dichloro-4-[3-(4-cyclopropyl-3,4-dihydro-2H-quinoxaline-1-carbonyl)-pyridin-4-yloxy]-benzamide]
0.1 | NC(=O)CCNC(=O)c1cc(Cl)c(Oc2ccncc2C(=O)N2CCN(C3CC3)c3ccccc32)cc1Cl [Example 53, N-(2-Carbamoyl-ethyl)-2,5-dichloro-4-[3-(4-cyclopropyl-3,4-dihydro-2H-quinoxaline-1-carbonyl)-pyridin-4-yloxy]-benzamide]
0.003 | O=C(c1cnccc1Oc1cc(Cl)c(CO)cc1Cl)N1CCN(C2CC2)c2ccccc21 [Example 55, (4-Cyclopropyl-3,4-dihydro-2H-quinoxalin-1-yl)-[4-(2,5-dichloro-4-hydroxymethyl-phenoxy)-pyridin-3-yl]-methanone]
0.003 | N#Cc1cc(Cl)c(Oc2ccncc2C(=O)N2CCN(C3CC3)c3ccccc32)cc1Cl [Example 56, 2,5-Dichloro-4-[3-(4-cyclopropyl-3,4-dihydro-2H-quinoxaline-1-carbonyl)-pyridin-4-yloxy]-benzonitrile]
0.01 | O=C(c1cnccc1Oc1cc(Cl)c(O)cc1Cl)N1CCN(C2CC2)c2ccccc21 [Example 57, (4-Cyclopropyl-3,4-dihydro-2H-quinoxalin-1-yl)-[4-(2,5-dichloro-4-hydroxy-phenoxy)-pyridin-3-yl]-methanone]
0.03 | CCOC(=O)COc1cc(Cl)c(Oc2ccncc2C(=O)N2CCN(C3CC3)c3ccccc32)cc1Cl [Example 58, {2,5-Dichloro-4-[3-(4-cyclopropyl-3,4-dihydro-2H-quinoxaline-1-carbonyl)-pyridin-4-yloxy]-phenoxy}-acetic acid ethyl ester]
0.012 | O=C(c1cnccc1Oc1cc(Cl)c(OCCO)cc1Cl)N1CCN(C2CC2)c2ccccc21 [Example 62, (4-Cyclopropyl-3,4-dihydro-2H-quinoxalin-1-yl)-{4-[2,5-dichloro-4-(2-hydroxy-ethoxy)-phenoxy]-pyridin-3-yl}-methanone]
